# Results: PubChem BioAssay AID651919 (Sanford-Burnham Center for Chemical Genomics, 2012)
# Values joined by “and” are separate entries in the source; they are usually repeats but may differ in a detail not shown here. Equal values may be shown once. Active and inactive are the calls of the source.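 The calls were made as follows: active = CXCR6 IC50 below 5 µM, and the CXCR5 counter screen gives no IC50 under five times the CXCR6 IC50; inactive = the rest.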
# Key:
# [1] = target: C-X-C chemokine receptor type 5 (Homo sapiens) (UniProt P32302); assay: CXCR6 and CXCR5 receptor antagonist panel, profiling panel, selectivity assay for CXCR6 antagonist project, cell-based, CHO-K1 PathHunter beta-arrestin, luminescence, set 4 (AID 651919); conditions: CHO-K1 PathHunter CXCR5 beta-arrestin, CXCR5, mean of runs
# [2] = target: C-X-C chemokine receptor type 6 (Homo sapiens) (UniProt O00574); assay: as above; conditions: CHO-K1 PathHunter CXCR6 beta-arrestin, CXCR6, mean of runs
# Sequence of C-X-C chemokine receptor type 6 (Homo sapiens) (O00574 whole entry, looked up): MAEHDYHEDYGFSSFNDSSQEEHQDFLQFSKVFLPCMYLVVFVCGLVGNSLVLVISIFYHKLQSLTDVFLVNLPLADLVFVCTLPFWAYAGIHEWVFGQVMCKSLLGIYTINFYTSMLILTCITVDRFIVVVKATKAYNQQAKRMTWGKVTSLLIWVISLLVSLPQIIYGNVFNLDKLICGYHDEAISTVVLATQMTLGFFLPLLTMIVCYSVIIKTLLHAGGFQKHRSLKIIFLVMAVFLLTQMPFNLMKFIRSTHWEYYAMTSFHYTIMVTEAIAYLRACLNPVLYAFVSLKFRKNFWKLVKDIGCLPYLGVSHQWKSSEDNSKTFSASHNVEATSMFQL
Structure (SMILES),IC50 [1],IC50 [2]
O=C(CN1C2CCCC1CC(NC(=O)c1ccccc1)C2)Nc1ccccc1 (stereo not drawn),> 79 µM (inactive),> 79 µM (inactive)
COc1cccc(C(=O)NC2CC3CCCC(C2)N3CC(=O)Nc2ccc(F)cc2)c1 (stereo not drawn),> 79 µM (inactive),> 79 µM (inactive)
O=C(CN1C2CCCC1CC(NC(=O)c1ccc3c(c1)OCO3)C2)Nc1ccc(F)cc1 (stereo not drawn),> 79 µM (inactive),> 79 µM (inactive)
COc1cccc(C(=O)NC2CC3CCCC(C2)N3CC(=O)Nc2ccc(C)cc2)c1 (stereo not drawn),> 79 µM (inactive),> 79 µM (inactive)
COc1ccc(NC(=O)CN2C3CCCC2CC(NC(=O)c2cccc(OC)c2)C3)cc1 (stereo not drawn),> 79 µM (inactive),> 79 µM (inactive)
COc1cc(OC)cc(C(=O)NC2CC3CCCC(C2)N3CC(=O)Nc2ccc(C)cc2)c1 (stereo not drawn),> 79 µM (inactive),> 79 µM (inactive)
COc1cc(OC)cc(C(=O)NC2CC3CCCC(C2)N3CC(=O)Nc2ccccc2)c1 (stereo not drawn),12.5 µM,> 79 µM (inactive)
COc1cc(C(=O)NC2CC3CCCC(C2)N3CC(=O)Nc2ccc(C)cc2)cc(OC)c1OC (stereo not drawn),> 79 µM (inactive),inactive
COc1cc(C(=O)NC2CC3CCCC(C2)N3CC(=O)Nc2ccc(F)cc2)cc(OC)c1OC (stereo not drawn),> 79 µM (inactive),inactive
COc1ccc(NC(=O)CN2C3CCCC2CC(NC(=O)c2cc(OC)cc(OC)c2)C3)cc1 (stereo not drawn),> 79 µM (inactive),> 79 µM (inactive)
COc1ccc(NC(=O)CN2C3CCCC2CC(NC(=O)c2ccc(OC)c(OC)c2)C3)cc1 (stereo not drawn),> 79 µM (inactive),> 79 µM (inactive)
COc1ccc(C(=O)NC2CC3CCCC(C2)N3CC(=O)Nc2ccc(Cl)cc2)cc1 (stereo not drawn),> 79 µM (inactive),> 79 µM (inactive)
COc1cc(OC)cc(C(=O)NC2CC3CCCC(C2)N3CC(=O)Nc2ccc(F)cc2)c1 (stereo not drawn),43.4 µM,> 79 µM (inactive)
COc1cc(C(=O)NC2CC3CCCC(C2)N3CC(=O)Nc2ccccc2)cc(OC)c1OC (stereo not drawn),> 79 µM (inactive),3.4 µM and 4.74 µM
COc1ccc(C(=O)NC2CC3CCCC(C2)N3CC(=O)Nc2ccccc2)cc1OC (stereo not drawn),> 79 µM (inactive),> 79 µM (inactive)
COc1ccc(NC(=O)CN2C3CCCC2CC(NC(=O)c2ccc(OC)cc2)C3)cc1 (stereo not drawn),> 79 µM (inactive),> 79 µM (inactive)
COc1cc(C(=O)NC2CC3CCCC(C2)N3CC(=O)Nc2ccc(Cl)cc2)cc(OC)c1OC (stereo not drawn),> 79 µM (inactive),1.48 µM

Structure (SMILES),IC50 [1],IC50 [2]
COc1cccc(C(=O)NC2CC3CCCC(C2)N3CC(=O)Nc2ccccc2)c1 (stereo not drawn),> 79 µM (inactive),> 79 µM (inactive)
COc1ccc(NC(=O)CN2C3CCCC2CC(NC(=O)c2ccc4c(c2)OCO4)C3)cc1 (stereo not drawn),> 79 µM (inactive),> 79 µM (inactive)
COc1ccc(NC(=O)CN2C3CCCC2CC(NC(=O)c2cc(OC)c(OC)c(OC)c2)C3)cc1 (stereo not drawn),> 79 µM (inactive),inactive
COc1ccc(CN2C3CCCC2CC(NC(=O)c2cc(OC)c(OC)c(OC)c2)C3)cc1 (stereo not drawn),> 79 µM (inactive),inactive
COc1ccc(C(=O)NC2CC3CCCC(C2)N3CC(=O)Nc2ccc(F)cc2)cc1OC (stereo not drawn),> 79 µM (inactive),> 79 µM (inactive)
COc1cc(OC)cc(C(=O)NC2CC3CCCC(C2)N3CC(=O)Nc2ccc(Cl)cc2)c1 (stereo not drawn),> 79 µM (inactive),> 79 µM (inactive)
COc1ccc(C(=O)NC2CC3CCCC(C2)N3CC(=O)Nc2ccccc2)cc1 (stereo not drawn),> 79 µM (inactive),> 79 µM (inactive)
COc1ccc(C(=O)NC2CC3CCCC(C2)N3CC(=O)Nc2ccc(Cl)cc2)cc1OC (stereo not drawn),> 79 µM (inactive),> 79 µM (inactive)
O=C(CN1C2CCCC1CC(NC(=O)c1ccc3c(c1)OCO3)C2)Nc1ccc(Cl)cc1 (stereo not drawn),> 79 µM (inactive),> 79 µM (inactive)
COc1ccccc1NC(=O)CN1C2CCCC1CC(NC(=O)c1cc(OC)c(OC)c(OC)c1)C2 (stereo not drawn),> 79 µM (inactive),1.85 µM
Cc1ccc(NC(=O)CN2C3CCCC2CC(NC(=O)c2ccc4c(c2)OCO4)C3)cc1 (stereo not drawn),> 79 µM (inactive),> 79 µM (inactive)
COc1ccc(C(=O)NC2CC3CCCC(C2)N3CC(=O)Nc2ccc(F)cc2)cc1 (stereo not drawn),> 79 µM (inactive),> 79 µM (inactive)
COc1ccc(C(=O)NC2CC3CCCC(C2)N3CC(=O)Nc2ccc(C)cc2)cc1 (stereo not drawn),> 79 µM (inactive),> 79 µM (inactive)
COc1cccc(C(=O)NC2CC3CCCC(C2)N3CC(=O)Nc2ccc(Cl)cc2)c1 (stereo not drawn),> 79 µM (inactive),> 79 µM (inactive)
COc1cc(C(=O)NC2CC3CCCC(C2)N3CC(=O)Nc2ccccc2Cl)cc(OC)c1OC (stereo not drawn),> 79 µM (inactive),0.356 µM and 0.137 µM
COc1ccc(C(=O)NC2CC3CCCC(C2)N3CC(=O)Nc2ccc(C)cc2)cc1OC (stereo not drawn),> 79 µM (inactive),> 79 µM (inactive)
O=C(CN1C2CCCC1CC(NC(=O)c1ccc3c(c1)OCO3)C2)Nc1ccccc1 (stereo not drawn),> 79 µM (inactive),> 79 µM (inactive)
